EC50 data for 6 compounds are collected here from US9486506B2 (Novo Nordisk A/S, priority 2011, dated 2016).

Numbered stars: 1 amine (or outer) side, 2 acyl side, 3 side chain; on linkers, the order of the positions; unused ones are H or OH. Side chains are listed from the residue outwards. Peptide text beside a SMILES is read from it. * marks the point of attachment. C18 diacid = O=C(O)CCCCCCCCCCCCCCCCC(=O)*; γGlu = O=C(O)[C@H](CCC(=O)[*:2])N[*:1]; AEEA = NCCOCCOCC(=O)O

The experiment has as its target T1, glucagon receptor (Homo sapiens, UniProt P47871).
T1 construct: expressed in transfected cells
Kind of experiment: Assay (I) Glucagon activity (cAMP biosensor, FLIPR). The class given is cell-based.

T1 sequence (P47871 26-477): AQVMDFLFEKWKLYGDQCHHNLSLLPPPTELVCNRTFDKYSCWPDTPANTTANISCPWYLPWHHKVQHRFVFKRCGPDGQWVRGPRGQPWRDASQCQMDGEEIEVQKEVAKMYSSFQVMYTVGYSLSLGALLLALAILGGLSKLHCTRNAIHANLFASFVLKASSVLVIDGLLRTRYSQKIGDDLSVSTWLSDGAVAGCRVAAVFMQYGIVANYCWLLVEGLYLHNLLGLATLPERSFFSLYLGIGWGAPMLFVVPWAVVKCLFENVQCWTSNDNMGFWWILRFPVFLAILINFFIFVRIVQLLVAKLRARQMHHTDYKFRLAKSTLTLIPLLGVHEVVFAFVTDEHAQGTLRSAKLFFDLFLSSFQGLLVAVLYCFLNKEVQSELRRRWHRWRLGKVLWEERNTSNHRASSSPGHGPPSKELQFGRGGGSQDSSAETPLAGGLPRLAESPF

The compound `CC[C@H](C)[C@H](NC(=O)[C@H](CC(N)=O)NC(=O)[C@H](CC(C)C)NC(=O)[C@H](CC(C)C)NC(=O)[C@H](Cc1c[nH]c2ccccc12)NC(=O)[C@H](CCCCNC(=O)CC[C@H](NC(=O)COCCOCCNC(=O)COCCOCCNC(=O)CC[C@H](NC(=O)CCCCCCCCCCCCCCCCC(=O)O)C(=O)O)C(=O)O)NC(=O)[C@@H](NC(=O)[C@H](Cc1ccccc1)NC(=O)[C@H](CC(=O)O)NC(=O)[C@H](CCC(N)=O)NC(=O)[C@H](C)NC(=O)[C@H](CCCNC(=N)N)NC(=O)[C@H](CCCNC(=N)N)NC(=O)[C@@H](NC(=O)[C@H](CC(=O)O)NC(=O)[C@H](CC(C)C)NC(=O)[C@H](Cc1ccc(O)cc1)NC(=O)[C@H](CCCCN)NC(=O)[C@H](CO)NC(=O)[C@H](Cc1ccc(O)cc1)NC(=O)[C@H](CC(=O)O)NC(=O)[C@H](CO)NC(=O)[C@@H](NC(=O)[C@H](Cc1ccccc1)NC(=O)[C@@H](NC(=O)CNC(=O)[C@H](CCC(N)=O)NC(=O)[C@H](CO)NC(=O)[C@@H](N)Cc1c[nH]cn1)[C@@H](C)O)[C@@H](C)O)[C@@H](C)O)C(C)C)C(=O)O` [Example 35, N^ε24-[(4S)-4-carboxy-4-[[2-[2-[2-[[2-[2-[2-[[(4S)-4-carboxy-4-(17-carboxyheptadecanoylamino)butanoyl]amino]ethoxy]ethoxy]acetyl]amino]ethoxy]ethoxy]acetyl]amino]butanoyl]-[Thr16,Lys24,Leu27,Ile29]-Glucagon] came in with an EC50 of 0.413 nM.

`CC(C)C[C@H](NC(=O)[C@H](Cc1ccc(O)cc1)NC(=O)[C@H](CCCCN)NC(=O)[C@H](CO)NC(=O)[C@H](Cc1ccc(O)cc1)NC(=O)[C@H](CC(=O)O)NC(=O)[C@H](CO)NC(=O)[C@@H](NC(=O)[C@H](Cc1ccccc1)NC(=O)[C@@H](NC(=O)CNC(=O)[C@H](Cc1c[nH]cn1)NC(=O)[C@H](CO)NC(=O)[C@@H](N)Cc1c[nH]cn1)[C@@H](C)O)[C@@H](C)O)C(=O)N[C@@H](CC(=O)O)C(=O)N[C@@H](CO)C(=O)N[C@@H](CCCCN)C(=O)N[C@@H](CCCNC(=N)N)C(=O)N[C@@H](C)C(=O)N[C@@H](CCC(N)=O)C(=O)N[C@@H](CCC(=O)O)C(=O)N[C@@H](Cc1ccccc1)C(=O)N[C@H](C(=O)N[C@@H](CCCCNC(=O)CC[C@H](NC(=O)CC[C@H](NC(=O)COCCOCCNC(=O)CC[C@H](NC(=O)CCCCCCCCCCCCCCCCC(=O)O)C(=O)O)C(=O)O)C(=O)O)C(=O)N[C@@H](Cc1c[nH]c2ccccc12)C(=O)N[C@@H](CC(C)C)C(=O)N[C@@H](CC(C)C)C(=O)N[C@@H](CO)C(=O)N[C@H](C(=O)O)[C@@H](C)O)C(C)C` [Example 6, N^ε24-[(4S)-4-carboxy-4-[[(4S)-4-carboxy-4-[[2-[2-[2-[[(4S)-4-carboxy-4-(17-carboxyheptadecanoylamino)butanoyl]amino]ethoxy]ethoxy]acetyl]amino]butanoyl]amino]butanoyl]-[His^3,Lys^17,Glu^21,Lys^24,Leu^27,Ser^28]-Glucagon] (H-HSHGTFTSDYSKYLDSKRAQEFVK([γGlu-γGlu-AEEA-γGlu-C18 diacid])WLLST-OH) yielded an EC50 of 0.077 nM. This EC50 is about 5.4-fold lower than that of the compound before.

Compound `CC(C)C[C@H](NC(=O)[C@H](Cc1ccc(O)cc1)NC(=O)[C@H](CCCCN)NC(=O)[C@H](CO)NC(=O)[C@H](Cc1ccc(O)cc1)NC(=O)[C@H](CC(=O)O)NC(=O)[C@H](CO)NC(=O)[C@@H](NC(=O)[C@H](Cc1ccccc1)NC(=O)[C@@H](NC(=O)CNC(=O)[C@H](Cc1c[nH]cn1)NC(=O)[C@H](CO)NC(=O)[C@@H](N)Cc1c[nH]cn1)[C@@H](C)O)[C@@H](C)O)C(=O)N[C@@H](CC(=O)O)C(=O)N[C@@H](CO)C(=O)N[C@@H](CCCNC(=N)N)C(=O)N[C@@H](CCCNC(=N)N)C(=O)N[C@@H](C)C(=O)N[C@@H](CCC(N)=O)C(=O)N[C@@H](CC(=O)O)C(=O)N[C@@H](Cc1ccccc1)C(=O)N[C@H](C(=O)N[C@@H](CCCCNC(=O)CC[C@H](NC(=O)CC[C@H](NC(=O)COCCOCCNC(=O)COCCOCCNC(=O)CC[C@H](NC(=O)CCCCCCCCCCCCCCCCC(=O)O)C(=O)O)C(=O)O)C(=O)O)C(=O)N[C@@H](Cc1c[nH]c2ccccc12)C(=O)N[C@@H](CC(C)C)C(=O)N[C@@H](CC(C)C)C(=O)N[C@@H](CO)C(=O)N[C@H](C(=O)O)[C@@H](C)O)C(C)C` [Example 2, N^ε24-[(4S)-4-carboxy-4-[[(4S)-4-carboxy-4-[[2-[2-[2-[[2-[2-[2-[[(4S)-4-carboxy-4-(17-carboxyheptadecanoylamino)butanoyl]amino]ethoxy]ethoxy]acetyl]amino]ethoxy]ethoxy]acetyl]amino]butanoyl]amino]butanoyl]-[His^3,Lys^24,Leu^27,Ser^28]-Glucagon] had a 50% effective concentration (EC50) of 0.129 nM.

As for `CC(C)C[C@H](NC(=O)[C@H](CC(=O)O)NC(=O)[C@H](CC(C)C)NC(=O)[C@H](Cc1ccc(O)cc1)NC(=O)[C@H](CCCNC(=N)N)NC(=O)[C@H](CO)NC(=O)[C@H](Cc1ccc(O)cc1)NC(=O)[C@H](CC(=O)O)NC(=O)[C@H](CO)NC(=O)[C@@H](NC(=O)[C@H](Cc1ccccc1)NC(=O)[C@@H](NC(=O)CNC(=O)[C@H](CCC(N)=O)NC(=O)[C@H](CO)NC(=O)[C@@H](N)Cc1c[nH]cn1)[C@@H](C)O)[C@@H](C)O)C(=O)N[C@@H](CCCNC(=N)N)C(=O)N[C@@H](CCCNC(=N)N)C(=O)N[C@@H](C)C(=O)N[C@@H](CCC(N)=O)C(=O)N[C@@H](CC(=O)O)C(=O)N[C@@H](Cc1ccccc1)C(=O)N[C@H](C(=O)N[C@@H](CCCCNC(=O)COCCOCCNC(=O)COCCOCCNC(=O)CC[C@H](NC(=O)CC[C@H](NC(=O)CC[C@H](NC(=O)CCCCCCCCCCCCCCCCC(=O)O)C(=O)O)C(=O)O)C(=O)O)C(=O)N[C@@H](Cc1c[nH]c2ccccc12)C(=O)N[C@@H](CC(C)C)C(=O)N[C@@H](CC(C)C)C(=O)N[C@@H](CO)C(=O)N[C@H](C(=O)O)[C@@H](C)O)C(C)C` [Example 28, N^ε24-[2-[2-[2-[[2-[2-[2-[[(4S)-4-carboxy-4-[[(4S)-4-carboxy-4-[[(4S)-4-carboxy-4-(17-carboxyheptadecanoylamino)butanoyl]amino]butanoyl]amino]butanoyl]amino]ethoxy]ethoxy]acetyl]amino]ethoxy]ethoxy]acetyl]-[Arg^12,Leu^16,Lys^24,Leu^27,Ser^28]-Glucagon] (H-HSQGTFTSDYSRYLDLRRAQDFVK([AEEA-AEEA-γGlu-γGlu-γGlu-C18 diacid])WLLST-OH), a half-maximal effect (EC50) was put at 0.1 nM.

Take `CC(C)C[C@H](NC(=O)[C@H](CC(=O)O)NC(=O)[C@H](CC(C)C)NC(=O)[C@H](Cc1ccc(O)cc1)NC(=O)[C@H](CCCNC(=N)N)NC(=O)[C@H](CO)NC(=O)[C@H](Cc1ccc(O)cc1)NC(=O)[C@H](CC(=O)O)NC(=O)[C@H](CO)NC(=O)[C@@H](NC(=O)[C@H](Cc1ccccc1)NC(=O)[C@@H](NC(=O)CNC(=O)[C@H](CCC(N)=O)NC(=O)[C@H](CO)NC(=O)[C@@H](N)Cc1c[nH]cn1)[C@@H](C)O)[C@@H](C)O)C(=O)N[C@@H](CCCNC(=N)N)C(=O)N[C@@H](CCCNC(=N)N)C(=O)N[C@@H](C)C(=O)N[C@@H](CCC(N)=O)C(=O)N[C@@H](CCC(=O)O)C(=O)N[C@@H](Cc1ccccc1)C(=O)N[C@H](C(=O)N[C@@H](CCCCNC(=O)CC[C@H](NC(=O)CC[C@H](NC(=O)COCCOCCNC(=O)COCCOCCNC(=O)CC[C@H](NC(=O)CCCCCCCCCCCCCCCCC(=O)O)C(=O)O)C(=O)O)C(=O)O)C(=O)N[C@@H](Cc1c[nH]c2ccccc12)C(=O)N[C@@H](CC(C)C)C(=O)N[C@@H](CC(C)C)C(=O)N[C@@H](CO)C(=O)N[C@H](C(=O)O)[C@@H](C)O)C(C)C` [Example 46, N^ε24-[(4S)-4-carboxy-4-[[(4S)-4-carboxy-4-[[2-[2-[2-[[2-[2-[2-[[(4S)-4-carboxy-4-(17-carboxyheptadecanoylamino)butanoyl]amino]ethoxy]ethoxy]acetyl]amino]ethoxy]ethoxy]acetyl]amino]butanoyl]amino]butanoyl]-[Arg12,Leu16,Glu21,Lys24,Leu27,Ser28]-Glucagon] (H-HSQGTFTSDYSRYLDLRRAQEFVK([γGlu-γGlu-AEEA-AEEA-γGlu-C18 diacid])WLLST-OH): the EC50 was 0.095 nM.

For the compound `CC(C)C[C@H](NC(=O)[C@H](Cc1c[nH]c2ccccc12)NC(=O)[C@H](CCCCNC(=O)CC[C@H](NC(=O)CC[C@H](NC(=O)COCCOCCNC(=O)COCCOCCNC(=O)CC[C@H](NC(=O)CCCCCCCCCCCCCCCCC(=O)O)C(=O)O)C(=O)O)C(=O)O)NC(=O)[C@@H](NC(=O)[C@H](Cc1ccccc1)NC(=O)[C@H](CC(=O)O)NC(=O)[C@H](CCC(N)=O)NC(=O)[C@H](C)NC(=O)[C@H](CCCNC(=N)N)NC(=O)[C@H](CCCNC(=N)N)NC(=O)[C@@H](NC(=O)[C@H](CC(=O)O)NC(=O)[C@H](CC(C)C)NC(=O)[C@H](Cc1ccc(O)cc1)NC(=O)[C@H](CCCCN)NC(=O)[C@H](CO)NC(=O)[C@H](Cc1ccc(O)cc1)NC(=O)[C@H](CC(=O)O)NC(=O)[C@H](CO)NC(=O)[C@@H](NC(=O)[C@H](Cc1ccccc1)NC(=O)[C@@H](NC(=O)CNC(=O)[C@H](CCC(N)=O)NC(=O)[C@H](CO)NC(=O)[C@@H](N)Cc1c[nH]cn1)[C@@H](C)O)[C@@H](C)O)C(C)C)C(C)C)C(=O)N[C@@H](CC(C)C)C(=O)N[C@@H](CO)C(=O)N[C@H](C(=O)O)[C@@H](C)O` [Example 30, N^ε24-[(4S)-4-carboxy-4-[[(4S)-4-carboxy-4-[[2-[2-[2-[[2-[2-[2-[[(4S)-4-carboxy-4-(17-carboxyheptadecanoylamino)butanoyl]amino]ethoxy]ethoxy]acetyl]amino]ethoxy]ethoxy]acetyl]amino]butanoyl]amino]butanoyl]-[Val16,Lys24,Leu27,Ser28]-Glucagon], the EC50 was 0.307 nM.
